Key:
[1] = biological target: T1, recombinant human Cox-1 (r-hu Cox1) (Homo sapiens, UniProt P23219); test: Recombinant human PGHS-1 enzyme assay (RHUCX1); format: biochemical; settings: read-out: RHUCX1 % Inh. at Dose
T1 construct: made in house; host or cells: baculovirus/Sf9 insect cells (microsomes)
Summary of the method: (§1)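 Prostaglandin biosynthesis was measured as PGE2 output, read by enzyme immunoassay after a 2.5-minute room-temperature reaction stopped with HCl and neutralized with NaOH.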

[2] = biological target: T2, recombinant human Cox-2 (r-hu Cox-2) (Homo sapiens, UniProt P35354); test: Recombinant human PGHS-2 enzyme assay (RHUCX2); format: biochemical; settings: read-out: RHUCX2 IC50 (parenthetical value)
T2 construct: made in house; host or cells: baculovirus/Sf9 insect cells (microsomes)
T2 sequence (P35354 18-604): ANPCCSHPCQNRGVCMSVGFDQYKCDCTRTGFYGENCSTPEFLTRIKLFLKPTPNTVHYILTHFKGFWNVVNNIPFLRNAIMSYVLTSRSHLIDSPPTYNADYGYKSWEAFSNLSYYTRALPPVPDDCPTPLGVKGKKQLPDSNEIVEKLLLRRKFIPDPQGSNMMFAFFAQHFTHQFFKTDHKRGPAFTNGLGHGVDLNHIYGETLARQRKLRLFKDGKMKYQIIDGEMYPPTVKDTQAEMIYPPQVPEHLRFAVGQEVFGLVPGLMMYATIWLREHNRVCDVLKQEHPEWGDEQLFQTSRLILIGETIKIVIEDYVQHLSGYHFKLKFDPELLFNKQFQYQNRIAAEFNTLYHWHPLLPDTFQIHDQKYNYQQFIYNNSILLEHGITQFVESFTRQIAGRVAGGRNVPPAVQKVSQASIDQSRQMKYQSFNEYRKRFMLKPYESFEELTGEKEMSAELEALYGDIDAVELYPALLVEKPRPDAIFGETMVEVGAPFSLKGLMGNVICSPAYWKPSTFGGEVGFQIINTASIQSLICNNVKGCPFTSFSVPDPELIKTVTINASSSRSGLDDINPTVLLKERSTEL
Summary of the method: as §1

[3] = biological target: T3, Human Whole Platelet Cyclooxygenase-1 (Homo sapiens, UniProt P23219); test: Human Whole Platelet Cyclooxygenase-1 assay (HWPX); format: cell-based; settings: read-out: HWPX IC50 (parenthetical value)
T3 construct: from tissue; host or cells: human blood: isolated platelets (A4) or heparinised whole blood (A9)
Summary of the method: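 Washed platelets from healthy-donor ACD blood were pre-incubated with compound for 10 min, then stimulated with calcium ionophore A23187 (8.8 μM final) for 10 min. Reaction stopped with cold 6 mM EDTA; thromboxane in supernatants quantified with a commercial kit.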

[4] = biological target: T4, human amnionic whole cell cyclooxygenase-2 (WISH cells) (Homo sapiens, UniProt P35354); test: IL-1β induced PGE2 production in WISH cells; format: cell-based; settings: read-out: Wish IC50 (parenthetical value)
T4 construct: endogenous in cells; host or cells: human amnionic WISH cells, induced with IL-1beta
T4 sequence (P35354 18-604): T2 sequence (P35354 18-604)
Summary of the method: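 Confluent (80%) WISH cells were stimulated with 5 ng/ml IL-1β in serum-free Neuman-Tytell medium, with or without test compound in DMSO (0.01% v/v). PGE2 in the culture medium was measured by EIA against standards prepared in the same medium, read by optical density.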

[5] = test system: carrageenan induced paw edema; test: Carrageenan induced paw edema (CPE) in rats; format: in vivo; settings: 10 mpk oral, rat, 3 hours after carrageenan; read-out: CPE % Inhib. @ 10 mpk
Summary of the method: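 Male Sprague-Dawley rats (170–190 g) dosed orally in PEG 400, 1 h before subplantar 0.1 ml 1% lambda carrageenan in right hindpaw. Plethysmographic paw volume at 0 and 3 h; edema as difference, % inhibition versus control mean (±SEM), Dunnett's test, ED50 by linear regression.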

T1 sequence (P23219 24-599): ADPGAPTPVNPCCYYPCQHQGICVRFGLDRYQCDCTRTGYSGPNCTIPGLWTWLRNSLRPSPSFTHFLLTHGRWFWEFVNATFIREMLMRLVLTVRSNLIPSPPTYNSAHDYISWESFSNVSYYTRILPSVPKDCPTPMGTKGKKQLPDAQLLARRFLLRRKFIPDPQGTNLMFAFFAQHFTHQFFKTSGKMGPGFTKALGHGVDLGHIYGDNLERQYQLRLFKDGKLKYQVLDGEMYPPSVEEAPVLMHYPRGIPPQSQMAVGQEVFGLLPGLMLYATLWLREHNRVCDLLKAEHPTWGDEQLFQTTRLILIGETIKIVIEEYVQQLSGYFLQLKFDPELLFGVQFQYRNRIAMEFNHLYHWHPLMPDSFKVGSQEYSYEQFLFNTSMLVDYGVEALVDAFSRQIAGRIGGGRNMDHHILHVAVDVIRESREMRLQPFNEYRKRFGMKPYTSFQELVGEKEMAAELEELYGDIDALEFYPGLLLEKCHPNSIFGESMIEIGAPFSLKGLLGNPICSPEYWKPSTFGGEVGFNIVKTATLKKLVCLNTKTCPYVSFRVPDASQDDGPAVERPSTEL
T3 sequence (P23219 24-599): as above

inhibition at 10 µM ([1]; 10 μM): 40%
inhibition at 30 µM ([1]; 30 μM): 62%
IC50 [2]: 350 nM
IC50 [3]: 2100 nM
IC50 [4]: 50 nM
melting point: 213 to 216 °C
Structure (SMILES): NS(=O)(=O)c1ccc(-c2cnn(-c3ccc(F)cc3)c(=O)c2-c2ccc(F)cc2)cc1 [Example 89]
inhibition in vivo at 10 mg/kg [5]: 45.5%
